The source of these data is US9095578B2, “Adenylyl cyclases as novel targets for the treatment of infection by eukaryotic pathogens” (CORNELL RESEARCH FOUNDATION, INC., priority 2007, dated 2015).

Data set [1] deals with adenylyl cyclase activity from Trypansoma brucei cell lysates. The data set can be described thus: adenylyl cyclase assay on whole cell lysate of the bloodstream form. The format is biochemical, Trypanosoma brucei. As to conditions: 15 mM MgCl2, 1 mM ATP, pH 7.5, 30° C.; for effect on adenylyl cyclase activity in whole cell lysate: any concentration. The protocol: The effect of these compounds on lysate activity was tested using whole cell lysate of the bloodstream form. Briefly, 5×10^6 cells were sonicated (on ice) in a lysis buffer consisting of 2 mM Tris-HCl, 15 mM KCl, 1 mM EDTA, 1 mM 2-mercaptoethanol, 100 μM PMSF, and 1 μg/mL aprotinin/leupeptin. Adenylyl cyclase assays were conducted using 20 μL of lysate/assay in the presence of 15 mM MgCl2 and 1 mM ATP in 50 mM Tris-HCl at pH=7.5 at 30° C. KH7.14 and KH7.15 had no effect on activity at any concentration while 100 μM KH7 stimulated AC activity in the whole cell lysate between 1.5-2 fold (see FIG. 2). The observation that KH7 prevents growth of bloodstream form cells in vitro via activation of adenylyl cyclase is consistent with the idea that the cAMP pathway controls the cell cycle.

Data set [2] deals with T1, human sAC (Homo sapiens, UniProt Q96PN6).
T1 construct: made in house
T1 sequence (Q96PN6 1-469 limits assumed): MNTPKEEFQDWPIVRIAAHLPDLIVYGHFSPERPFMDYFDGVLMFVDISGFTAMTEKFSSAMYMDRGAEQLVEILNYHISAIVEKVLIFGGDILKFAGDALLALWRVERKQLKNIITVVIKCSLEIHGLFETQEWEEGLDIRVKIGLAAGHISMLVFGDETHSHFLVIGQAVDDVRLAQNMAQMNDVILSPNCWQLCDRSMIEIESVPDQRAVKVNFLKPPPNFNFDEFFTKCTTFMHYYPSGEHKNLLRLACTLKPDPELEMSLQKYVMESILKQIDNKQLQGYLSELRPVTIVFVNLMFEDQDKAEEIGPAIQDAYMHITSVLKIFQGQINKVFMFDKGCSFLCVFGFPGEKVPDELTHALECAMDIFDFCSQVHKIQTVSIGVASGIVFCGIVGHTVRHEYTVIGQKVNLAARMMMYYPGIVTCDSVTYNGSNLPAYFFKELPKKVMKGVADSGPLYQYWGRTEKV
The data set is described as follows: in vitro adenylyl cyclase assay with purified human sAC protein. It counts as biochemical. As to conditions: 100 μM of compound; calcium and bicarbonate stimulated; activation instead of inhibition. The protocol:
Purified human sAC protein was used in an in vitro adenylyl cyclase assay. Purification of the protein is described in detail in Litvin et al. 2003. […] This paper also describes the general conditions for a sAC cyclase assay. The specific conditions for the in vitro assay are as follows.
An aliquot of the master mixture was added to the purified human sAC. The assay mixture also included the indicated concentration of KH compound, or an equivalent volume of vehicle (i.e., DMSO) as control. The reaction was started by adding 5 mM ATP (total assay volume=100 μL). […] Stimulated assay conditions involve adding 40 mM bicarbonate and 5 mM CaCl2 to the above master mixture.
Cyclic AMP levels were measured in each sample using the Correlate-EIA Direct Cyclic AMP assay kit from Assay Designs as per manufacturers instructions.

For the next data set, the system named is Cryptococcus. The data set is described as follows: morphological transition essential for pathogenesis, Cryptococcus. It counts as cell-based.
In a further data set the test system is Candida. The data set is described as follows: morphological transition essential for pathogenesis, Candida. The format is cell-based.
Data set [3] concerns endogenous transmembrane adenylyl cyclases. The data set is described as follows: in vivo cAMP accumulation assay, 293T cells + IBMX and Forskolin. The format is cell-based, human. The conditions noted are these: 293T + FSK column. How it is done: 293T cells or 4-4 cells (hsACt stably transfected into 293T) were grown in 75 cm2 Tissue Culture Flasks until nearly confluent using DMEM (10% FBS, 1% L-Glutamine, 1% Penicillin/Streptomycin). Cells were released from the flask with 3 ml of trypsin followed by addition of 7 ml of DMEM to neutralize the trypsin. Cells were mixed by pipetting up and down with 10 ml serological pipette. To a 3 ml aliquot of the cell mixture, 6 ml of DMEM (prewarmed to 37° C.) was added followed by thorough mixing by picking up the entire 9 mls using a repeat pipettor, and slowly pipetting out against the wall of container. This was repeated this ten times to ensure the mixture in homogenous. 100 μL of cells were then added to each pre-siliconized 1.7 ml Eppindorf tubes (Costar #3207) followed by a 60 min incubation at 37° C. and 5% CO2. This incubation was performed in 20-tube, round, floating racks (VWR #60986-100), which enable a quick transfer of the samples to a water bath, and the ability to mix several samples simultaneously. Following the incubation, 1 μL of the compound in DMSO was added (or just DMSO for controls). […] Following a 10 min incubation at room temperature, 30 μL of each sample was added to 70 μL of 0.1 N HCl and the cAMP levels were measured using the protocol for the Direct Cyclic AMP Kit (Assay Designs, Inc. # 901-066). […]

Data set [4] deals with T1, human sAC. The data set can be described thus: in vivo cAMP accumulation assay, 4-4 cells (hsACt stably transfected into 293T) + IBMX. The format is cell-based. As to conditions: 4-4, Basal column. The protocol: 293T cells or 4-4 […] stably transfected into 293T) were grown in 75 cm2 Tissue Culture Flasks until nearly confluent using DMEM (10% FBS, 1% L-Glutamine, 1% Penicillin/Streptomycin). Cells were released from the flask with 3 ml of trypsin followed by addition of 7 ml of DMEM to neutralize the trypsin. Cells were mixed by pipetting up and down with 10 ml serological pipette. To a 3 ml aliquot of the cell mixture, 6 ml of DMEM (prewarmed to 37° C.) was added followed by thorough mixing by picking up the entire 9 mls using a repeat pipettor, and slowly pipetting out against the wall of container. This was repeated this ten times to ensure the mixture in homogenous. 100 μL of cells were then added to each pre-siliconized 1.7 ml Eppindorf tubes (Costar #3207) followed by a 60 min incubation at 37° C. and 5% CO2. This incubation was performed in 20-tube, round, floating racks (VWR #60986-100), which enable a quick transfer of the samples to a water bath, and the ability to mix several samples simultaneously. Following the incubation, 1 μL of the compound in DMSO was added (or just DMSO for controls). The cells were mixed before and after adding the compound, by a brief (and light) vortexing. The compounds were added while the cells were in the 37° C. water bath, followed by a 10 min incubation at 37° C. and 5% CO2. […] The 4-4 cells receive the IBMX to a final concentration of 500 μM IBMX. […]

In the case of `O=C(CSc1nc2ccccc2[nH]1)N/N=C/c1ccccn1` [KH7.14], the “effect on adenylyl cyclase activity in whole cell lysate” value in data set [1] was “no effect”. With `COc1cc(/C=N/NC(=O)CSc2nc3ccccc3[nH]2)ccc1O` [KH7.15], the “effect on adenylyl cyclase activity in whole cell lysate” value in data set [1] is given as “no effect”.

In the case of `Cc1ccc(Cn2c(SCC(=O)N/N=C/c3ccncc3)nc3ccccc32)cc1` [KH7.142], the “Activation, printed in column % Inhibition (100 μM), stimulated human sAC” value at human sAC [2] is listed as “Activation @ 100”. For the compound `CC(Sc1nc2ccccc2[nH]1)C(=O)N/N=C/c1cc(Br)ccc1O` (centres unmarked) [KH7], the “morphological transition essential for pathogenesis” value in the data set on Cryptococcus and with Candida was “blocked” in each case. The “stimulation of AC activity in the whole cell lysate” value in data set [1] (100 μM) was 1.5-2 fold.

With `C/C(=N\NC(=O)CSc1nc2ccccc2[nH]1)c1ccccc1` [KH7.108], the “remark on cellular toxicity, 293T cells” value in data set [3] is “may be cellular toxicity”. Besides, the “remark on cellular toxicity, 4-4 cells” value on human sAC [4] is “may be cellular toxicity”.
